Measured values reported in the supplement of paper PMC10307832.

Experiments:
Test in all cases: relative viability (nuclei count vs DMSO), 5 days (fraction); higher = more cells survive
[1] = compound: CN1CCN(CC1)C2=CC(=C(C=C2)NC3=NC=C4C(=N3)N(C5=CC=CC=C5C(=O)N4C)C)OC [XMD8-85] + Nc1ncn([C@H]2C[C@H](O)[C@@H](CO)O2)c(=O)n1 [Decitabine] (partner 2 µM)
Outline: (§1)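 Relative viability was taken as the ratio of nuclei in treated wells to nuclei in vehicle wells. Lung cancer cell lines in 1536-well plates received compounds by pin tool one day after seeding, either one drug alone or a fixed anchor-drug dose plus five library-drug doses (not always all listed) in √10 steps. Nuclei were counted on 4× images after 5 days of treatment, and values are medians of duplicate plates.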

[2] = compound: CN1CCN(CC1)C2=CC(=C(C=C2)NC3=NC=C4C(=N3)N(C5=CC=CC=C5C(=O)N4C)C)OC [XMD8-85] + O=C(CCCCCCC(=O)Nc1ccccc1)NO [Vorinostat] (partner 1 µM)
Outline: as §1

[3] = compound: O=C(O)C(Cc1ccccc1[N+](=O)[O-])=NNc1nc(-c2ccc(Cl)c(Cl)c2)cs1 (mixture of isomers) [4EGI-1] + CS(=O)(=O)CCNCc1ccc(-c2ccc3ncnc(Nc4ccc(OCc5cccc(F)c5)c(Cl)c4)c3c2)o1 [Lapatinib] (partner 2 µM)
Outline: as §1

[4] = compound: O=C(O)C(Cc1ccccc1[N+](=O)[O-])=NNc1nc(-c2ccc(Cl)c(Cl)c2)cs1 (mixture of isomers) [4EGI-1] + Cc1nc(NC(=O)N2CCC[C@H]2C(N)=O)sc1-c1ccnc(C(C)(C)C(F)(F)F)c1 [Alpelisib] (partner 2 µM)
Outline: as §1

Row | Cell Line | relative viability ([1]; first compound 0.08 µM) | relative viability ([1]; first compound 0.253 µM) | relative viability ([1]; first compound 0.8 µM) | relative viability ([1]; first compound 2.53 µM) | relative viability ([1]; first compound 8 µM) | relative viability ([2]; first compound 0.08 µM) | relative viability ([2]; first compound 0.253 µM) | relative viability ([2]; first compound 0.8 µM) | relative viability ([2]; first compound 2.53 µM) | relative viability ([2]; first compound 8 µM) | relative viability ([3]; first compound 0.5 µM) | relative viability ([3]; first compound 5 µM) | relative viability ([3]; first compound 15.81 µM) | relative viability ([3]; first compound 50 µM) | relative viability ([4]; first compound 0.5 µM) | relative viability ([4]; first compound 5 µM) | relative viability ([4]; first compound 15.81 µM) | relative viability ([4]; first compound 50 µM) | relative viability ([3]; first compound 1.581 µM) | relative viability ([4]; first compound 1.581 µM)
1 | LCLC-97TM1 | 0.222 | 0.206 | 0.204 | 0.284 | 0.195 | 0.786 | 0.823 | 0.915 | 0.784 | 0.259 | 1.28 | 1.16 | 0.801 | 0.274 | 0.213 | 0.239 | 0.236 | 0.211 |  | 
2 | NCI-H1944 | 0.451 | 0.404 | 0.462 | 0.456 | 0.422 | 0.581 |  | 0.544 | 0.594 | 0.493 | 0.816 | 0.776 | 0.745 | 0.456 | 0.86 | 0.796 | 0.642 | 0.672 |  | 
3 | EPLC-272H | 0.347 | 0.36 | 0.314 | 0.294 | 0.305 | 0.414 | 0.401 | 0.335 | 0.296 | 0.243 | 1.03 | 0.909 | 0.624 | 0.39 | 0.98 | 0.905 | 0.911 | 0.873 | 0.501 | 0.868
4 | NCI-H1437 | 0.641 | 0.534 | 0.596 |  | 0.501 | 0.93 | 0.879 | 0.94 | 0.751 | 0.482 | 0.914 | 0.671 | 0.184 | 0.127 | 1.13 | 0.84 | 0.845 | 0.153 | 0.861 | 0.865
5 | LU99A | 0.919 | 0.86 | 1.08 | 0.769 | 0.694 | 0.363 | 0.518 | 0.506 |  | 0.428 | 1.04 | 1.08 | 0.739 | 0.214 | 0.613 | 0.538 | 0.539 | 0.171 |  | 
6 | NCI-H1993 | 0.543 | 0.555 | 0.585 | 0.561 | 0.57 | 0.559 | 0.783 | 0.839 | 0.825 | 0.766 | 0.945 | 0.838 | 0.693 | 0.767 | 0.714 | 0.72 | 0.675 | 0.659 | 0.718 | 0.666
7 | NCI-H838 | 0.572 | 0.46 | 0.476 | 0.449 | 0.354 | 0.729 | 0.739 | 0.706 | 0.641 | 0.409 | 1.24 | 1.16 | 0.654 | 0.173 | 1.02 | 1.06 | 0.907 | 0.524 |  | 
8 | NCI-H322M | 0.688 | 0.659 | 0.707 | 0.644 | 0.606 | 0.832 | 0.815 | 0.885 | 0.779 | 0.606 | 0.617 | 0.637 | 0.566 | 0.427 | 0.778 | 0.771 | 0.722 | 0.809 | 0.558 | 0.895
9 | NCI-H3122 | 0.401 | 0.439 | 0.481 | 0.507 | 0.543 | 1.02 | 1.17 | 1.03 | 1.08 | 1.38 | 1.05 | 1.02 | 0.955 | 0.578 | 0.866 | 0.792 | 0.775 | 0.646 | 0.922 | 0.718
10 | HCC-15 | 0.537 | 0.642 | 0.782 | 0.749 | 0.517 | 0.896 | 0.819 | 0.806 | 0.792 | 0.586 | 0.949 | 0.871 | 0.8 | 0.423 | 0.923 | 0.968 | 0.809 | 0.519 | 0.914 | 0.886
11 | NCI-H727 | 0.867 | 1.04 | 0.84 | 0.894 | 0.643 | 1.09 | 1.23 | 1.17 | 1.24 | 0.984 | 0.96 | 0.96 | 0.724 | 0.391 | 0.676 | 0.625 | 0.478 | 0.366 | 0.712 | 0.54
12 | NCI-H596 | 0.941 | 1.01 |  | 2 | 0.873 | 0.517 | 0.559 | 0.495 | 0.53 | 0.361 | 1.07 | 1.23 | 0.958 | 0.609 | 0.576 | 0.508 | 0.574 | 0.461 | 1.03 | 0.524
13 | NCI-H2347 | 0.599 | 0.619 | 0.583 |  | 0.531 | 0.603 | 0.564 | 0.59 | 0.533 | 0.504 | 0.898 | 0.909 | 0.855 | 0.844 | 1.2 | 1.04 | 0.965 | 0.978 | 0.746 | 0.953
14 | NCI-H2126 | 0.647 | 0.578 | 0.562 | 0.57 | 0.562 | 0.772 |  | 0.795 |  | 0.553 | 0.832 | 0.76 | 0.736 | 0.643 | 0.779 | 0.749 | 0.67 | 0.739 | 0.836 | 0.716
15 | HCC-78 | 0.672 | 0.694 | 0.736 | 0.671 | 0.675 | 0.395 | 0.43 | 0.391 | 0.427 | 0.434 | 0.842 | 0.752 | 0.788 | 0.947 | 0.439 | 0.319 | 0.32 | 0.218 | 0.551 | 0.315
